Measurements as given in patent US20140045908A1, “HSP90 INHIBITORY COMPOUNDS IN TREATING JAK/STAT SIGNALING-MEDIATED CANCERS” (SYNTA PHARMACEUTICALS CORP., priority 2011, published 2014).

Experiments:
Format in all cases: cell-based, human
[1] = system: JAK/STAT signaling in SET-2 cells; assay: Western blot of JAK/STAT signaling in SET-2 cells; settings: 24 h
Method: SET-2 cells were dosed with the indicated concentrations of ganetespib or 17-AAG for 24 h and analyzed to determine JAK/STAT protein and target levels using the antibodies indicated.
(§1) Cells were disrupted in lysis buffer (CST) and solubilized in 2% SDS. Xenograft tumors (average volume of 100-200 mm3) were excised, cut in half, and flash frozen in liquid nitrogen. Each tumor fragment was lysed in 0.5 mL of lysis buffer using a FastPrep-24 homogenizer and Lysing Matrix A (MP Biomedicals, Solon, Ohio, USA) and lysates clarified by centrifugation. Equal amounts of proteins were resolved by SDS-PAGE and immunoblotted with indicated antibodies. The antigen-antibody complex was visualized and quantitated using an Odyssey system (LI-COR, Lincoln, Nebr., USA).

HEL92.1.7 cells [2] = assay: Cell viability assay (AlamarBlue, 72 h)
Method: All cell lines were obtained from the ATCC (Rockville, Md., USA), with the exception of SET-2 cells which were purchased from the German Collection of Microorganisms and Cell Cultures (DSMZ, Germany). Cells were maintained and cultured according to standard techniques at 37° C. in 5% (v/v) CO2 using culture medium recommended by the supplier.
Cells were grown in 96-well plates based on optimal growth rates determined empirically for each line. Twenty-four hours after plating, cells were dosed with the indicated compound or DMSO (0.3%) for 72 h. AlamarBlue (Invitrogen, Carlsbad, Calif., USA) was added (10% v/v) to the cells, and the plates were incubated for 3 h and subjected to fluorescence detection (Ex=545 nm, Em=600 nm) in a SpectraMax Plus 384 microplate reader (Molecular Devices, Sunnyvale, Calif., USA). Data are normalized to percent of control, with IC50 values based on a four-parameter logistic dose response curve (model 205) using XLfit version 5.1 from IDBS (Guildford, U.K.).

[3] = system: JAK2 dependent signaling in HEL92.1.7 cells; assay: Western blot of JAK/STAT signaling in HEL92.1.7 cells; settings: 250 nM ganetespib or 1000 nM P6
Method: FIG. 2 compares the more durable ganetespib durable inhibition of JAK/STAT signaling to P6. HEL92.1.7 cells were cultured in the presence of 250 nM Ganetespib or 1000 nM P6 and harvested at the indicated time points. The levels of JAK2, phosphorylated and total STAT3 and STAT5, phospho-AKT, phospho-ERK and GAPDH were determined by western blot.
as §1

[4] = system: JAK2/STAT3 signaling in HCC827 cells; assay: Western blot of constitutive and IL-6 induced STAT3 activity in HCC827 cells
Method: HCC827 lung cancer cells were treated with increasing concentrations of ganetespib or P6 for 24 h followed by a 15 min stimulation with or without 50 ng/ml human recombinant IL-6. The levels of JAK2, total and phospho-STAT3, and PIM2 were analyzed by western blot. GAPDH is included as a loading control.
as §1

[5] = system: JAK/STAT target and cell cycle gene expression in HEL92.1.7 cells; assay: RNA expression profiling (RT-PCR, Affymetrix) in HEL92.1.7 cells; settings: 4 hour P6 (1000 nM), 24 hour ganetespib (250 nM)
Method: HEL92.1.7 cells were treated with DMSO, P6 (100 or 1000 nM) or ganetespib (25 or 250 nM) for 4 h or 24 h, and total RNA extracted using Trizol (Invitrogen). RNA was purified with the RNeasy kit (Qiagen, Hilden, Germany) and converted to cDNA via an iScript kit (BioRad, Hercules, Calif., USA). Oligonucleotide primers were purchased from SABiosciences (Frederick, Md., USA). PCR was done with iQ SYBR Green Supermix (Bio-Rad), and levels of the tested genes were normalized to HPRT expression using the comparative Ct method.
Biotinylated aRNA was generated by in vitro transcription using Affymetrix GeneChip Expression IVT labeling kit (Affymetrix, Santa Clara, Calif., USA). Fifteen micrograms of labeled aRNA was fragmented and hybridized to Affymetrix GeneChip Human Genome U133 Plus 2 arrays and scanned using a GeneChip Scanner (Affymetrix). Array data were analyzed with the Affymetrix Expression Console Software utilizing the MASS algorithm. In order to generate a threshold for identifying probe sets that have large differences between 1000 nM P6 (4 h) and 250 nM ganetespib (24 h) arrays and their controls in the absence of treatment replicates, data from four control arrays (DMSO only; two at 4 h, and two at 24 h) were used to create an expression level dependent fold-difference envelope that reflects the increasing measurement variability as expression level decreases. This envelope, used in lieu of a fixed fold-difference criteria, was formed by identifying the xth percentile expression-level difference (where x was large, typically 99.9%) at each mean expression level bin. To achieve this, data were used from the six possible comparisons from the four DMSO-only arrays. The resulting, smoothed threshold fold-difference envelope was then applied to the two compound-treated/control array pairs to identify those probe-sets that have large expression level differences between treatment and control. For hierarchical analysis, genes with greater than two fold changes in expression with 250 nM ganetespib were clustered using established algorithms in Cluster (49) and a subset visualized by TreeView.

HEL92.1.7 cells [6] = assay: Flow cytometry cell cycle analysis
Method: HEL92.1.7 cells were plated at 0.5×10^6 cells/mL and treated as indicated. Cells were harvested and stained with propidium iodide using the BD Cycle TEST PLUS Reagent Kit (BD Biosciences, San Jose, Calif., USA) according to the manufacturer's instructions. Twenty thousand cells were analyzed for their DNA content using a FACS Caliber cytometer (BD Biosciences).

[7] = system: Cdk1, phospho-Chk2, cyclins in HEL92.1.7 cells; assay: Western blot of cell cycle proteins in HEL92.1.7 cells; settings: ganetespib 250 nM or P6 1000 nM, 24-48 h
Method: Cells were harvested at the indicated time points and the levels of total and phospho-Cdk1, phospho-Chk2 and GAPDH analyzed by western blot.
FIG. 12 illustrates the effects of ganetespib on JAK/STAT and cell cycle protein expression. HEL92.1.7 cells were treated with 100 nM ganetespib and subject to western blot to determine the levels of Cdk1, cyclin B1, cyclin A1, JAK2, total and phospho-STAT3, and GAPDH at hourly intervals over an 11 h time course.
as §1

[8] = 24 h, absence of external ligand

## C=CCNC1=C2C[C@@H](C)C[C@H](OC)[C@H](O)[C@@H](C)/C=C(\C)[C@H](OC(N)=O)[C@@H](OC)/C=C\C=C(/C)C(=O)NC(=CC1=O)C2=O [17-AAG, reference compound]
[1]
  fold less potent than ganetespib, effects on JAK/STAT signaling: 200 fold

## CC(C)(C)c1nc2c3cc[nH]c(=O)c3c3cc(F)ccc3c2[nH]1 [P6, reference compound]
HEL92.1.7 cells [2]
  fold less potency than ganetespib, loss of cellular viability: 30 fold
HEL92.1.7 cells [2]; 72 h, Alamar blue, read-out: IC50, loss of cellular viability
  IC50: 0.614 µM
[3]
  JAK2 dependent signaling (phospho-STAT3, phospho-STAT5, ERK signaling): blocked JAK2 dependent signaling
[4]; [8]
  JAK2 expression: did not influence total JAK2 protein levels
  constitutive STAT3 activity: downregulated constitutive STAT3 activity
[4]; 24 h then 15 min 50 ng/ml IL-6
  JAK/STAT signaling stimulated by exogenous IL-6: blocked JAK/STAT signaling stimulation
[5]
  expression of JAK/STAT target genes (SOCS and PIM family members): downregulated
HEL92.1.7 cells [6]
  cell cycle distribution: accumulation in G1 phase only, without the loss of S phase or G2/M arrest
[7]
  Cdk1 protein expression: no effect on Cdk1 expression
